Activity calls are given as the source filed them. No cut-off for these calls is given here.
Tests used:
[1] = Volume of distribution at steady state in Sprague-Dawley rat at 2 mg/kg, iv measured upto 24 hrs by LC-MS/MS analysis; assay type: ADME, organism-based; conditions: in vivo, read-out: Vdss
[2] = Toxicity in CHO cells assessed as mutagenic effect by chromosome aberration test; assay type: cell-based, Cricetulus griseus; conditions: chinese hamster
[3] = Volume of distribution at steady state in beagle dog at 2 mg/kg, iv measured upto 24 hrs by LC-MS/MS analysis; assay type: ADME, organism-based, Canis lupus familiaris; conditions: in vivo
[4] = Maximum tolerated dose in Sprague-Dawley rat treated intravenously twice a day; assay type: toxicity, organism-based; conditions: in vivo, route iv
Rattus norvegicus [5] = assay: Hemostatic effect in rt-PA enhanced Sprague-Dawley rat tail bleeding model assessed as reduction in tail bleeding time at 40 mg/kg infused into right jugular vein; assay type: functional, organism-based; conditions: route iv
[6] = AUC (0 to infinity) in Sprague-Dawley rat at 2 mg/kg, iv measured upto 24 hrs by LC-MS/MS analysis; assay type: ADME, organism-based; conditions: in vivo
[7] = Half life in Sprague-Dawley rat at 2 mg/kg, iv measured upto 24 hrs by LC-MS/MS analysis; assay type: ADME, organism-based; conditions: in vivo
Plasminogen [8] = biological target: T1, Plasminogen (Homo sapiens, UniProt P00747); assay: Inhibition of plasminogen activation assessed as inhibition of recombinant human tissue plasminogen activator (rt-PA)-induced clot lysis measured after clot lysis pre-incubated for 15 mins by buffer clot lysis assay
[9] = Half life in Sprague-Dawley rat at 2 mg/kg, IM measured upto 24 hrs by LC-MS/MS analysis; assay type: ADME, organism-based; conditions: in vivo
[10] = biological target: Glycine receptor (alpha-1/beta) (Homo sapiens, UniProt P23415+P48167); assay: Inhibition of glycine receptor alpha1beta (unknown origin); assay type: toxicity
[11] = biological target: Tissue-type plasminogen activator (Homo sapiens) (UniProt P00750); assay: Inhibition of recombinant human tissue plasminogen activator (rt-PA)-induced fibrinolysis in human fresh whole blood assessed as thrombus dissolution within 30 mins after reaching maximum amplitude (LY30) by thromboelastography analysis; assay type: functional, tissue-based
[12] = AUC (0 to infinity) in Sprague-Dawley rat at 2 mg/kg, IM measured upto 24 hrs by LC-MS/MS analysis; assay type: ADME, organism-based; conditions: in vivo
Homo sapiens = species: Homo sapiens; assay: (§1) Inhibition of Plasminogen (unknown origin) binding to fibrin (unknown origin) interaction by surface plasmon resonance (SPR) analysis
[13] = as §1; set-up: species or system Homo sapiens
[14] = Clearance in Sprague-Dawley rat at 2 mg/kg, iv measured upto 24 hrs by LC-MS/MS analysis; assay type: ADME, organism-based; conditions: in vivo
[15] = biological target: T2, GABA-A receptor; alpha-1/beta-2/gamma-2 (Homo sapiens, UniProt P14867+P18507+P47870); assay: Inhibition of GABA-A receptor alpha1beta2gamma2 (unknown origin); assay type: toxicity
T2 sequence (P14867 whole entry): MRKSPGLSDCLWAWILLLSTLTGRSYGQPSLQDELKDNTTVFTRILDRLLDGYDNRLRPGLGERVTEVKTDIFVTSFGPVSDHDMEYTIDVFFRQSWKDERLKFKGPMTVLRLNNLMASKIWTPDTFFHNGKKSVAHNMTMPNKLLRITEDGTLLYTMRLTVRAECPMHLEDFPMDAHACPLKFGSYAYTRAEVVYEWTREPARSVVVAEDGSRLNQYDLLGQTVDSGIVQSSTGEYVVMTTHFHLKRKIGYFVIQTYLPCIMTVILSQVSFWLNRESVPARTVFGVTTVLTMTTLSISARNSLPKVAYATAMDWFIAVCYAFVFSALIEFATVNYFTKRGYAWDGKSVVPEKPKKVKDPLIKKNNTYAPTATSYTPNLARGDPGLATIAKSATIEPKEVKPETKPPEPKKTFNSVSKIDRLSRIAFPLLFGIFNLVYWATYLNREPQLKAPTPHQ
T2 sequence (P47870 whole entry): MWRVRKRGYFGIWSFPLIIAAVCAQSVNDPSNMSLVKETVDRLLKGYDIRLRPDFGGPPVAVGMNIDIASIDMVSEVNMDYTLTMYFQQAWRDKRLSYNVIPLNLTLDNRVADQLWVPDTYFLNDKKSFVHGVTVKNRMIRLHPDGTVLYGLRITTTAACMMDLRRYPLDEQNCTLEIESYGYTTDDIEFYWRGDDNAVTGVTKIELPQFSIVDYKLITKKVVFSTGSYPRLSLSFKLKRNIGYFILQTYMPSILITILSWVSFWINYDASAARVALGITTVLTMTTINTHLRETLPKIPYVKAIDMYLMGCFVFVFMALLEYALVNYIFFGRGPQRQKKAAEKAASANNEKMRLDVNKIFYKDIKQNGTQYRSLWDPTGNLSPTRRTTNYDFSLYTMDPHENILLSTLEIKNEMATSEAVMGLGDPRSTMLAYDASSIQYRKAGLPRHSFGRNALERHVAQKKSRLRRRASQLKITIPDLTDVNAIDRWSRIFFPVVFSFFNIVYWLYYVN
T2 sequence (P18507 whole entry): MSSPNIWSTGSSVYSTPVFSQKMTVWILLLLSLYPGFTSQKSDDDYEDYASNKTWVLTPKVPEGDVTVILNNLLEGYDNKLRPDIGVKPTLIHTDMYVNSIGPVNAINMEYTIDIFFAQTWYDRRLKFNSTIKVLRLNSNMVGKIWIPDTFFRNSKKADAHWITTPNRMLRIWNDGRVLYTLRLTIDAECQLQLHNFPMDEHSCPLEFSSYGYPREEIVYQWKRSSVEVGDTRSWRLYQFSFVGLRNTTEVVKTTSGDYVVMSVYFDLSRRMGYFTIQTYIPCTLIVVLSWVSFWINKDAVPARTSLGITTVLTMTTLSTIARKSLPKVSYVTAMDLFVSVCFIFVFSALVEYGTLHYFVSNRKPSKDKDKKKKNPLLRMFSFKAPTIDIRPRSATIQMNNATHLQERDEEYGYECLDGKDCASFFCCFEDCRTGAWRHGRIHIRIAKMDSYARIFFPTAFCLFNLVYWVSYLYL

[16] = AUC (0 to infinity) in beagle dog at 2 mg/kg, iv measured upto 24 hrs by LC-MS/MS analysis; assay type: ADME, organism-based, Canis lupus familiaris; conditions: in vivo
Plasminogen [17] = biological target: T1, Plasminogen; assay: Binding affinity to biotinylated Plasminogen (unknown origin) assessed as dissociation constant by surface plasmon resonance (SPR) analysis
[18] = Half life in beagle dog at 2 mg/kg, iv measured upto 24 hrs by LC-MS/MS analysis; assay type: ADME, organism-based, Canis lupus familiaris; conditions: in vivo
[19] = biological target: Tissue-type plasminogen activator (Rattus norvegicus) (UniProt P19637); assay: Inhibition of recombinant tissue plasminogen activator (rt-PA)-induced fibrinolysis in Sprague-Dawley rat fresh whole blood assessed as thrombus dissolution within 30 mins after reaching maximum amplitude (LY30) at > 3 uM by thromboelastography analysis; assay type: functional, tissue-based
[20] = biological target: Voltage-gated inwardly rectifying potassium channel KCNH2 (Homo sapiens, UniProt Q12809); assay: Inhibition of hERG; assay type: toxicity
[21] = Toxicity in Sprague-Dawley rat assessed as no observed adverse effect level (NOAEL) treated for 14 days; conditions: in vivo, time 14 day
[22] = Toxicity in rat peripheral blood cells assessed as clastogenic effect by micronucleus test; assay type: cell-based; conditions: erythrocyte
[23] = Half life in beagle dog at 2 mg/kg, IM measured upto 24 hrs by LC-MS/MS analysis; assay type: ADME, organism-based, Canis lupus familiaris; conditions: in vivo
[24] = AUC (0 to infinity) in beagle dog at 2 mg/kg, IM measured upto 24 hrs by LC-MS/MS analysis; assay type: ADME, organism-based, Canis lupus familiaris; conditions: in vivo
[25] = Maximum tolerated dose in beagle dog treated intravenously twice a day; assay type: toxicity, organism-based, Canis lupus familiaris; conditions: in vivo, route iv
[26] = Toxicity in beagle dog assessed as no observed adverse effect level (NOAEL) treated for 14 days; set-up: species or system Canis lupus familiaris; conditions: in vivo, time 14 day
Blood = assay: Ratio of compound IC50 to TXA IC50 in anti-fibrinolytic activity in healthy human fresh blood by plasma clot lysis; assay type: functional
Rattus norvegicus [27] = assay: Hemostatic effect in rt-PA enhanced Sprague-Dawley rat tail bleeding model assessed as reduction in tail bleeding time at 5 mg/kg infused into right jugular vein; assay type: functional, organism-based; conditions: route iv

T1 sequence (P00747 97-580 limits assumed): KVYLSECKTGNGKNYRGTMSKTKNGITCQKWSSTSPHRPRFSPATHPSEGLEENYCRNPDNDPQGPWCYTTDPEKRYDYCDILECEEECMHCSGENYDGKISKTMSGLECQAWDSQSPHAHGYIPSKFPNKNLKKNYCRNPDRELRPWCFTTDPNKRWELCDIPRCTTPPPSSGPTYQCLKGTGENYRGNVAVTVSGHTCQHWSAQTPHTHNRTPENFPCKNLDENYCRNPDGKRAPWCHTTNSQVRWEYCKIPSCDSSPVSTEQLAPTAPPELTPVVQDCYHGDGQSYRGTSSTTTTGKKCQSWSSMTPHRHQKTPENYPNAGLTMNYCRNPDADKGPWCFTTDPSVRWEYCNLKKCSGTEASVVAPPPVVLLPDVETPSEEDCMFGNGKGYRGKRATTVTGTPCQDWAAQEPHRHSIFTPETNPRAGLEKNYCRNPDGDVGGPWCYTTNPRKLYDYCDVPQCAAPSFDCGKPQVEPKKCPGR
T1 sequence (P00747 581-810 limits assumed): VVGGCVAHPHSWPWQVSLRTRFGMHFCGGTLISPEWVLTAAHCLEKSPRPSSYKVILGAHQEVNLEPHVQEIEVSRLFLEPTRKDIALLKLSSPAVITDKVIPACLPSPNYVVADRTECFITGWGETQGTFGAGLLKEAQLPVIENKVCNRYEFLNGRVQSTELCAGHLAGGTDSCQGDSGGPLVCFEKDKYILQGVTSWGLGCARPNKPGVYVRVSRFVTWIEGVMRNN
Sequence of Glycine receptor (alpha-1/beta) (P23415 whole entry): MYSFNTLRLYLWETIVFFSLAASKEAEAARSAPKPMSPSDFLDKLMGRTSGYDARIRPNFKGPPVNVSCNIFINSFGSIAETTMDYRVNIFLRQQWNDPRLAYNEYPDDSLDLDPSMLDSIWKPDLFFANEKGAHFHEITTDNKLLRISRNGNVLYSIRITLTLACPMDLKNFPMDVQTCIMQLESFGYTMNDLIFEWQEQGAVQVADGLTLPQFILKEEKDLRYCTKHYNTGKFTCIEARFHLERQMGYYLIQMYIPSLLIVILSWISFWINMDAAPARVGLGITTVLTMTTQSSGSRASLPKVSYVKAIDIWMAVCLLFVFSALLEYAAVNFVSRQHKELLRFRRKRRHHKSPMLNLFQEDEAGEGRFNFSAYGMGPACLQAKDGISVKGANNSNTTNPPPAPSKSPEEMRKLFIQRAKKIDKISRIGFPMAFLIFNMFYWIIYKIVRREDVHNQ
Sequence of Glycine receptor (alpha-1/beta) (P48167 whole entry): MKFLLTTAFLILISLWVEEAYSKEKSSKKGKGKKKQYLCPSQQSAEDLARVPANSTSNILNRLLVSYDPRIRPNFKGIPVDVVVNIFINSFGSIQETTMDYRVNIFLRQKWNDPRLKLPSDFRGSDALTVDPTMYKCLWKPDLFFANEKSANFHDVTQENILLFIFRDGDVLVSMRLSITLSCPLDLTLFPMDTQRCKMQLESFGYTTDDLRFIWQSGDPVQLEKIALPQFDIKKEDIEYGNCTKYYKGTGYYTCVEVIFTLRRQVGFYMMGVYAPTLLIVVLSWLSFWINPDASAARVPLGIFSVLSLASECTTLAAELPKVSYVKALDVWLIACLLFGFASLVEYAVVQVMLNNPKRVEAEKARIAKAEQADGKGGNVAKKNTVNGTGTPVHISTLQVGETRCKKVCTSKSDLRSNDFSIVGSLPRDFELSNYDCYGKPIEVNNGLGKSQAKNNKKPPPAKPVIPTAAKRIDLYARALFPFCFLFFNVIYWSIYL
Sequence of Tissue-type plasminogen activator (Rattus norvegicus) (P19637 whole entry): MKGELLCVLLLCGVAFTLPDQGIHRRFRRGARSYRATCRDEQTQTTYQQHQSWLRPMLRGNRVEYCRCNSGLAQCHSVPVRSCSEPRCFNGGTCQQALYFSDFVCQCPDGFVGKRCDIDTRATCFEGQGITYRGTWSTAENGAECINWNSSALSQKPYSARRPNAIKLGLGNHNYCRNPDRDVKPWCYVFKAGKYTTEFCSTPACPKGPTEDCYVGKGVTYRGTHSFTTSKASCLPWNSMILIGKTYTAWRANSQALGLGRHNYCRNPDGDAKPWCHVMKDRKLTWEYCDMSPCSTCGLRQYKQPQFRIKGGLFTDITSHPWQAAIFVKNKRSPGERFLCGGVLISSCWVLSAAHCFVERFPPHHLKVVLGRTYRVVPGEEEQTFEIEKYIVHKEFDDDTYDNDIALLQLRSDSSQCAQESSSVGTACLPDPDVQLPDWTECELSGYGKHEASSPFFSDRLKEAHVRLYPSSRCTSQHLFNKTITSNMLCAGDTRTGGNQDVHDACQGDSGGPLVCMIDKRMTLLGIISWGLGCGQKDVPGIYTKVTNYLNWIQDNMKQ
Sequence of Tissue-type plasminogen activator (Homo sapiens) (P00750 36-562 limits assumed): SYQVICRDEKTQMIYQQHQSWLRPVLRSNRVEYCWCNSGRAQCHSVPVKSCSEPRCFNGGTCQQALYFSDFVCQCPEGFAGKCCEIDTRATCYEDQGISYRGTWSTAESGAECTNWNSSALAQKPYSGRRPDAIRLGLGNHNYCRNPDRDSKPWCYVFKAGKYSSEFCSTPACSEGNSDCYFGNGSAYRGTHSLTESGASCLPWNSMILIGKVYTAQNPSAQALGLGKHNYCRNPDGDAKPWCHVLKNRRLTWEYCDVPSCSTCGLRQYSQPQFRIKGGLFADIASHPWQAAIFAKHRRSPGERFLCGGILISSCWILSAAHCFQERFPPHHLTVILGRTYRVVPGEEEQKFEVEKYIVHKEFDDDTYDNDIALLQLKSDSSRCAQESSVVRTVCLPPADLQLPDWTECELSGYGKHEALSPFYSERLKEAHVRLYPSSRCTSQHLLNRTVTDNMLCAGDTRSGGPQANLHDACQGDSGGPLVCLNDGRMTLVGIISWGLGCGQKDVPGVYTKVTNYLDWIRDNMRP
Sequence of Voltage-gated inwardly rectifying potassium channel KCNH2 (Q12809 whole entry): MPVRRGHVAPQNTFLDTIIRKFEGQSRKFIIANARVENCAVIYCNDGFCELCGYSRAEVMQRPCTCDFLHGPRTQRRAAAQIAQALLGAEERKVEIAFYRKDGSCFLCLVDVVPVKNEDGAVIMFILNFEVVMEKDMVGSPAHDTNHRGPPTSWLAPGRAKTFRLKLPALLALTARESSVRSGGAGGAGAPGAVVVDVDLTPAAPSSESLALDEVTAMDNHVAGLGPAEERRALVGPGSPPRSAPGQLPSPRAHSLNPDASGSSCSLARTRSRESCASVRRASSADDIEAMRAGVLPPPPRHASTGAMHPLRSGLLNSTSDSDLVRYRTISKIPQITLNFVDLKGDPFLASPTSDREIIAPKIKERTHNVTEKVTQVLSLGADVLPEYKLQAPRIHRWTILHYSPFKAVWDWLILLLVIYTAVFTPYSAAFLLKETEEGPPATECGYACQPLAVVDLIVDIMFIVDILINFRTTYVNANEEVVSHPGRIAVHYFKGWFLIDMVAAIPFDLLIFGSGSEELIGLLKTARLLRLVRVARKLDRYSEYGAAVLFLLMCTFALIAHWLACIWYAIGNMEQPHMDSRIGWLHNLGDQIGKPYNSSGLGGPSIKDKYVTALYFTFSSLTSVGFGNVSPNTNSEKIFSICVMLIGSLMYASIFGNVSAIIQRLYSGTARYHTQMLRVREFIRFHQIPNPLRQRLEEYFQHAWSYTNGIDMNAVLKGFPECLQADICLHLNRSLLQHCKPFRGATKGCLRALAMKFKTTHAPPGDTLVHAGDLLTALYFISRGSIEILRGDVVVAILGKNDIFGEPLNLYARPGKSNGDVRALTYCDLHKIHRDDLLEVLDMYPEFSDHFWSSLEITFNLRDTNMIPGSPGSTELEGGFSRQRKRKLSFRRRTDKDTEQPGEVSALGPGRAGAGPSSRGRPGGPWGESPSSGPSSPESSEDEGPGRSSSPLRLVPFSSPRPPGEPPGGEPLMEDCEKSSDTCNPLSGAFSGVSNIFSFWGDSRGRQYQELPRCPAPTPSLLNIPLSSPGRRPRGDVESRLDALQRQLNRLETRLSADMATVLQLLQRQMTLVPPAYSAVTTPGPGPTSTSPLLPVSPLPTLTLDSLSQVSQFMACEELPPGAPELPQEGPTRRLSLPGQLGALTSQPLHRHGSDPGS

## Cl.O=P(O)(O)c1ccc2c(n1)CCNC2
[1]
  Vd: 0.473 L/kg
[2]
  Activity: Non-toxic
[3]
  Vdss: 0.96 L/kg
[4]
  MTD: > 500 mg/kg
Rattus norvegicus [5]
  Activity: Active
[6]
  AUC(0-inf): 11600 ng·h/mL
[7]
  half-life: 2.53 h
Plasminogen [8]
  IC50: 8.42 µM
[9]
  half-life: 2.41 h
[10]
  IC50: 540 µM
[11]
  IC90: 1.01 µM
[12]
  AUC(0-inf): 14200 ng·h/mL
Homo sapiens
  IC90: 4.71 µM
[13]
  IC50: 1.48 µM
[14]
  clearance: 2.64 mL/min/kg
[15]
  IC50: 782 µM
[16]
  AUC: 16600 ng·h/mL
Plasminogen [17]
  Kd: 21.1 µM
[18]
  t1/2: 11.1 h
[19]
  inhibition: Active
[20]
  IC50: > 300 µM
[21]
  NOAEL at 336 h: 60 mg/kg
[22]
  Activity: Non-toxic
[23]
  half-life: 12.8 h
[24]
  AUC(0-inf): 16500 ng·h/mL
[25]
  MTD: > 500 mg/kg
[26]
  NOAEL at 336 h: 70 mg/kg
Blood
  Ratio IC50: 0.19
Rattus norvegicus [27]
  Activity: Active
